The record followed here is patent publication US20240197869A1, “HYPERACTIVATORS OF MAMMALIAN DENDRITIC CELLS” (Corner Therapeutics, Inc., priority 2021, published 2024).

“Also recorded” adds a separate entry of the source.

One assay deals with human naïve CD4+ T cells. In words: Mixed lymphocyte reaction: polarization of naïve CD4 T cells (flow cytometry). The assay is classed as cell-based. The procedure: Mixed lymphocyte reaction. Human monocytes were isolated from leukopheresis products using Miltenyi StraightFrom LeukoPak CD14 microbeads as directed by manufacturer. To isolate naïve CD4 T cells, whole blood was diluted with an equal volume of PBS. Diluted blood was layered on top of Ficoll-Paque PLUS solution and spun at 1000 rcf for 20 minutes at room temperature with no brakes. Buffy coat layer was collected, washed, and counted. Miltenyi human naïve CD4 T cell microbead isolation kits were used to isolate cells of interest from the PBMC according to manufacturer's instructions. Collected cells were cryogenically stored in 90% FBS and 10% DMSO.
Monocytes were differentiated into moDC. moDC were counted and plated in U-bottom plates at 2×10^4 cells/well and treated with hyperactivating stimuli or control conditions. After one day of culture, 1×10^5 cells/well naïve CD4 T cells from a different (allogeneic) human donor were thawed and added to the cultures with 100 ng/mL IL-2. Cells were cocultured for 5 days with an IL-2 feed on the third day of coculture. After 5 days, cells were reactivated for four hours using Leukocyte Activation Cocktail with BD GolgiPlug (BD Biosciences). Cells were stained to determine the resulting polarization of activated T cells via flow cytometry. Intracellular staining targets required the use of BD Biosciences Transcription Factor Buffer set to fix and permeabilize cells prior to the intracellular staining step.
Ten moDC donor samples were tested in MLR assay. Staining results were analyzed using FlowJo software, and consistent gating strategies were applied to all samples. Frequency of activated cells was graphed as a percentage of CD4 T cells in each sample. Paired t-tests were used to determine statistical significance.
A general note: Flow cytometry measures light scatter and fluorescence of single cells or particles in a stream.

Assay [1] concerns canine peripheral blood mononuclear cells (PBMCs). In words: IL-1β secretion by canine PBMCs (ELISA). The assay is classed as cell-based. The settings on record: lipid 82.5 μM combined with R848 1 μg/mL, 2 days. The method, then:
Isolation of PBMCs from Whole Blood. PBMCs were isolated from whole blood using density gradient centrifugation with Ficoll-Paque PLUS (Cytivia). Whole blood was diluted 1:1 with PBS, layered on top of Ficoll-Paque PLUS and centrifuged at 1000×g for 30 minutes at room temperature. PBMCs were collected, washed twice in PBS, and incubated with Ack lysis buffer (Lonza) to remove any remaining red blood cells.
Cell Culture and Stimulation. […] Cells were plated at 1×10^5 (canine cells) or 1×10^6 (human cells) per well in 96-well flat bottom tissue culture plates. Lyophilized Vaccigrade R848 (Invivogen) was reconstituted and diluted according to manufacturer's recommendations and added to cells at a final concentration of 1 μg/mL.
Quantification of Cytokine Secretion. IL-1β secretion from human PBMCs was assessed using one of the following kits: ELISA MAX Deluxe Set Human IL-1β kit (Biolegend), Invitrogen Human IL-1β kit, or the Lumit™ Human IL-1β Immunoassay (Promega). IFNγ secretion from human PBMCs was assessed using the ELISA MAX Deluxe Set Human IFNγ (Biolegend) and TNFα secretion from human PBMCs was assessed using the Human TNFα Uncoated ELISA kit (Invitrogen). […] IL-1β secretion from canine PBMCs was assessed using the Canine IL-1β/IL-1F2 DuoSet ELISA (R&D) according to manufacturer's instructions with the following modifications: i) total sample+buffer volume for incubation was reduced from 100 μL to 50 μL; ii) sample incubation was completed overnight at 4° C. on an orbital shaker. For all ELISAs, absorbance was measured at 450 nm, with a 570 nm correction, using a Spectramax M5e plate reader (Molecular Devices). For Lumit™ assays, luminescence was measured on all wavelengths using a Spectramax M5e plate reader (Molecular Devices) with an integration time of 500 ms. […]
A general note: In an ELISA, binding on a coated surface is turned into a signal by an enzyme label.

The subject of assay [2] is murine, FLT3L-differentiated cDC1 and cDC2 cells. The experiment in a line: Flow cytometry of surface markers on murine cDC1 and cDC2. In kind it is cell-based, mouse. The procedure: Murine FLT3L-differentiated, bone marrow-derived DC (BMDC) generation. Leg femur and tibia were removed from mice, cut with scissors and flushed into sterile tubes. Bone marrow suspension was treated with ACK for 1 minute, then passed through a 40 um cell strainer. Cells were counted and resuspended in media consisting of complete IMDM containing 10% FBS, penicillin and streptomycin, and supplements of L-glutamine and sodium pyruvate (I10). Cells were then plated at 5E6 bone marrow cells per well in a P12 plate. Recombinant mouse FLT3L (Miltenyi) was added to cultures at 200 ng/mL. Differentiated cells were used for subsequent assays on day 9. The efficiency of differentiation was monitored by flow cytometry using BD Symphony A3, and CD11c+MHC-II+ cells were routinely above 80% of living cells. For each experiment, five mice were used to collect BM and to generate DCs.
Murine FLT3L-differentiated BMDC (FLT3L-BMDC) hyperactivation. BMDCs were washed with PBS and re-plated in FLT3L-containing 110 at a concentration of 1.5×10^5 cells/well. Stimuli were added to cultures at indicated concentrations for a final volume of 200 uL/well. Twenty-four hours post-stimulation, cell culture supernatant was collected after centrifugation and stored at −20° C. to measure cytokine secretion. IL-1b, IL-6, IL-12p40, and TNF-alpha ELISA were performed using eBioscience Ready-SET-Go! (now ThermoFisher) ELISA kits according to the manufacturer's protocols. Cell viability was measured using Promega's Cell Titer-Glo reagent kits.
Flow cytometry. After FcR blockade, treated FLT3L-BMDCs were washed and stained in PBS with Live Dead Fixable dye (ThermoFisher) for 20 minutes at 4° C. Cells were then washed again and stained for 20 minutes at 4° C. in MACS buffer (PBS with 1% FCS and 2 mM EDTA) containing the following fluorescently conjugated antibodies purchased from BioLegend: anti-CD11c, anti-I-A/I-E, anti-H-2Kb, anti-SIRPa, anti-CD24, anti-CD40, anti-CD45R, anti-CXCL16 and anti-CCR7. Data were acquired on a BD FACS Symphony (Becton-Dickenson). Data were analyzed using FlowJo software (Tree Star). […]

The mark [3] stands for this setting: moDC treated with R848 + 22:0 LPC.

For `CCCCCCCCCCCCCCCCCCCCCC(=O)OC[C@@H](O)COP(=O)([O-])OCC[N+](C)(C)C` [22:0 LYSO PC, 1-behenoyl-2-hydroxy-sn-glycero-3-phosphocholine], in the assay with human naïve CD4+ T cells (setting [3]), the “Th2 polarization (Gata3, IL-4) (in words)” value is on record as “minimal Th2 polarization occurred” and the “Th17 cells (RORg, IL-17) (in words)” value is “not detected”. Further, in the assay with human naïve CD4+ T cells (moDC treated with R848 + 22:0 LPC vs R848 alone), the “frequency of polyfunctional Th1 cells (IFN-gamma and TNF-alpha) (in words)” value is “increased in frequency”. The “frequency of Th1 cells (in words)” value in the assay with human naïve CD4+ T cells (moDC treated with R848 + 22:0 LPC vs R848 alone, 5 days coculture) is listed as “increased the frequency of Th1 cells”. Besides, the “IL-1β secretion (in words)” value in assay [1] is given as “comparable or higher levels of IL-1β compared to every other stimuli tested; also recorded: hyperactivated to a greater extent”. Besides, in assay [2] (R848 + 41 uM lipid in 5% KP407, cDC1 and cDC2), the “CD40 expression (in words)” value was “strongly enhanced”. For the same compound, in assay [2] (R848 + lipid vs R848 alone), the “MHC class I expression (in words)” value was “enhanced MHC class I expression on both cDC1 and cDC2 subsets”. Further, the “CCR7 expression (in words)” value in assay [2] (cDC1, R848 + lipid in KP407 formulation) is given as “increased their CCR7 expression significantly compared to R848 alone”.
